Numbers after ± are expanded uncertainties.
Details: Liquid, Closed cell (Static) method

NCCO [2-aminoethan-1-ol]
Details | vapor or sublimation pressure [kPa]
283.15 K | 0.0158 ± 0.0019
283.34 K | 0.016 ± 0.0017
288.34 K | 0.02533 ± 0.0026
293.15 K | 0.0382 ± 0.0042
293.34 K | 0.03866 ± 0.004
298.34 K | 0.05866 ± 0.006
303.15 K | 0.0867 ± 0.0092
303.34 K | 0.08799 ± 0.0089
308.34 K | 0.1293 ± 0.013
313.15 K | 0.1855 ± 0.019
313.34 K | 0.188 ± 0.019
318.34 K | 0.2693 ± 0.0046
323.15 K | 0.3762 ± 0.0081
323.34 K | 0.3813 ± 0.0063
328.34 K | 0.5333 ± 0.0086
333.15 K | 0.7274 ± 0.014
333.34 K | 0.7359 ± 0.012
338.34 K | 1.007 ± 0.016
343.15 K | 1.347 ± 0.02
343.34 K | 1.363 ± 0.021
348.34 K | 1.827 ± 0.027
353.15 K | 2.4 ± 0.024
353.34 K | 2.425 ± 0.035
358.34 K | 3.193 ± 0.045
363.09 K | 4.113 ± 0.057
363.15 K | 4.126 ± 0.032

CN1CCOCC1 [N-methylmorpholine]
Details | vapor or sublimation pressure [kPa]
273.18 K | 0.6893 ± 0.0091
278.18 K | 0.9533 ± 0.012
283.18 K | 1.3 ± 0.012
288.18 K | 1.748 ± 0.012
293.18 K | 2.322 ± 0.014
298.18 K | 3.049 ± 0.017
303.18 K | 3.96 ± 0.021
308.18 K | 5.09 ± 0.026
313.15 K | 6.471 ± 0.046
313.18 K | 6.479 ± 0.032
318.18 K | 8.174 ± 0.039
323.15 K | 10.21 ± 0.065
323.18 K | 10.22 ± 0.048
328.18 K | 12.68 ± 0.059
333.15 K | 15.58 ± 0.094
333.18 K | 15.6 ± 0.072
338.18 K | 19.06 ± 0.087
343.15 K | 23.1 ± 0.14
343.18 K | 23.13 ± 0.1
348.18 K | 27.88 ± 0.13
353.08 K | 33.27 ± 0.15
353.15 K | 33.35 ± 0.19
363.15 K | 47.02 ± 0.26

O [water]
Details | vapor or sublimation pressure [kPa]
282.87 K | 1.177 ± 0.011
283.15 K | 1.2 ± 0.021
287.87 K | 1.636 ± 0.012
292.87 K | 2.244 ± 0.014
293.15 K | 2.284 ± 0.023
297.87 K | 3.044 ± 0.017
302.87 K | 4.081 ± 0.021
303.15 K | 4.148 ± 0.031
307.87 K | 5.416 ± 0.027
312.87 K | 7.114 ± 0.034
313.15 K | 7.222 ± 0.046
317.87 K | 9.258 ± 0.043
322.87 K | 11.94 ± 0.055
323.15 K | 12.11 ± 0.07
327.87 K | 15.27 ± 0.069
332.87 K | 19.36 ± 0.087
333.15 K | 19.62 ± 0.11
337.87 K | 24.37 ± 0.11
342.87 K | 30.44 ± 0.13
343.15 K | 30.82 ± 0.16
347.87 K | 37.76 ± 0.17
352.87 K | 46.53 ± 0.2
353.15 K | 47.07 ± 0.24
357.87 K | 56.98 ± 0.25
362.87 K | 69.35 ± 0.3
363.15 K | 70.1 ± 0.36
363.8 K | 71.88 ± 0.31

Source: the NIST ThermoML archive (doi:10.1021/je800530u)
